The results in this text go back to patent US20130096105A1, “ArylSulfonamide Based Matrix Metalloprotease Inhibitors” (NOVARTIS AG, priority 2008, published 2013).

The term IC50 denotes the concentration needed to halve the response being measured.

For one test, the target named is T1, Gelatinase (MMP-2) (Homo sapiens, UniProt P08253).
T1 sequence (P08253 110-660): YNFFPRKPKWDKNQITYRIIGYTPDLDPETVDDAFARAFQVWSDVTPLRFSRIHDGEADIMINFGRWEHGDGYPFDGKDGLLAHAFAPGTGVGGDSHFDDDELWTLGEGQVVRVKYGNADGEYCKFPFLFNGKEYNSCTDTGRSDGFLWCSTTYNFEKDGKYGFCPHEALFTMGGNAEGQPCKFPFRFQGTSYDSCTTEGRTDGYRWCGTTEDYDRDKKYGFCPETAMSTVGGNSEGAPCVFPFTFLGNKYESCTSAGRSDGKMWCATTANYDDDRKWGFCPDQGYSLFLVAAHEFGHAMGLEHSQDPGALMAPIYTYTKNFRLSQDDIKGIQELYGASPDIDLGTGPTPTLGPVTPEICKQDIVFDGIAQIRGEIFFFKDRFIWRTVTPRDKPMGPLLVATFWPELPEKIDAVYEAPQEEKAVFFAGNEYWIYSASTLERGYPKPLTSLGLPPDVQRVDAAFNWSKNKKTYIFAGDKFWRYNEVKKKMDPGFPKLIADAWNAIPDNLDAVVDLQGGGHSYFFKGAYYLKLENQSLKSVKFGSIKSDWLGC
In words: Gelatinase (MMP-2) inhibitory activity, fluorogenic peptide substrate cleavage. In kind it is biochemical. Particulars: read-out: MMP02 IC50. Summed up:
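Fluorogenic assay with MCA-Lys-Pro-Leu-Gly-Leu-Dpa-Ala-Arg-NH2 at 5 μM in Tris-Cl pH 7.5 buffer with ZnCl2, CaCl2, Brij-35 and 1.0% DMSO, 20-25 °C. Enzyme preincubated with inhibitor 60 min; fluorescence (ex 325/em 405 nm) read 60 min after substrate addition. IC50 relative to uninhibited control.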

A further test addresses Collagenase-3 (MMP-13) (Homo sapiens, UniProt P45452). As to the kind of experiment: Collagenase-3 (MMP-13) inhibitory activity, fluorogenic peptide substrate cleavage. It counts as biochemical. Particulars: read-out: MMP13 IC50. An outline of the steps:
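Recombinant pro-MMP-13 activated with 1 mM APMA; inhibitor preincubated 60 min, then 5 μM MCA-Lys-Pro-Leu-Gly-Leu-Dpa-Ala-Arg-NH2 added in Tris-Cl pH 7.5 buffer with Zn2+, Ca2+, Brij-35, 1.0% DMSO, 20-25 °C. Fluorescence (ex 325/em 405 nm) read after 60 min; IC50 versus uninhibited control.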

In the case of `NS(=O)(=O)c1cc(C(=O)c2ccc3c(-c4ccc(C(=O)N5CCOCC5)cc4)c[nH]c3c2)ccc1Cl` [Example 132, 2-Chloro-5-{3-[4-(morpholine-4-carbonyl)-phenyl]-1H-indole-6-carbonyl}-benzenesulfonamide], the IC50 came to 16000 nM on Gelatinase (MMP-2) and 730 nM on Collagenase-3 (MMP-13).

As to `Cc1noc(C)c1-c1c[nH]c2cc(C(=O)c3ccc(Cl)c(S(N)(=O)=O)c3)ccc12` [Example 133, 2-Chloro-5-[3-(3,5-dimethyl-isoxazol-4-yl)-1H-indole-6-carbonyl]-benzenesulfonamide], the IC50 worked out at 23000 nM on Gelatinase (MMP-2) and 300 nM on Collagenase-3 (MMP-13).

Consider `COc1cc(-c2c[nH]c3cc(C(=O)c4ccc(Cl)c(S(N)(=O)=O)c4)ccc23)c(Cl)cn1` [Example 134, 2-Chloro-5-[3-(5-chloro-2-methoxy-pyridin-4-yl)-1H-indole-6-carbonyl]-benzenesulfonamide], for which the IC50 turned out to be 23000 nM at Gelatinase (MMP-2) and 100 nM at Collagenase-3 (MMP-13).

For the compound `NS(=O)(=O)c1cc(C(=O)c2ccc3c(-c4ccncc4)c[nH]c3c2)ccc1Cl` [Example 135, 2-Chloro-5-(3-pyridin-4-yl-1H-indole-6-carbonyl)-benzenesulfonamide], the results for the IC50 at Gelatinase (MMP-2) and on Collagenase-3 (MMP-13) were 1050 nM and 90 nM, respectively.

For `NS(=O)(=O)c1cc(C(=O)c2ccc3c(-c4ccnc(Cl)c4)c[nH]c3c2)ccc1Cl` [Example 136, 2-Chloro-5-[3-(2-chloro-pyridin-4-yl)-1H-indole-6-carbony]-benzenesulfonamide], the concentration for half-maximal inhibition (IC50) at Gelatinase (MMP-2) was 18000 nM; at Collagenase-3 (MMP-13), 250 nM.

Take `Cc1cc(-c2c[nH]c3cc(C(=O)c4ccc(Cl)c(S(N)(=O)=O)c4)ccc23)ccn1` [Example 137, 2-Chloro-5-[3-(2-methyl-pyridin-4-yl)-1H-indole-6-carbonyl]-benzenesulfonamide]: the values for the IC50 on Gelatinase (MMP-2) and at Collagenase-3 (MMP-13) were 3450 nM and 41 nM, respectively.

Take `CCc1cc(-c2c[nH]c3cc(C(=O)c4ccc(Cl)c(S(N)(=O)=O)c4)ccc23)ccn1` [Example 138, 2-Chloro-5-[3-(2-ethyl-pyridin-4-yl)-1H-indole-6-carbonyl]-benzenesulfonamide]: the figures for the half-maximal inhibitory concentration (IC50) on Gelatinase (MMP-2) and at Collagenase-3 (MMP-13) were 3550 nM and 60 nM, respectively.

`NS(=O)(=O)c1cc(C(=O)c2ccc3c(-c4ccnc(C5CC5)c4)c[nH]c3c2)ccc1Cl` [Example 139, 2-Chloro-5-[3-(2-cyclopropyl-pyridin-4-yl)-1H-indole-6-carbonyl]-benzenesulfonamide]: the results for the IC50 at Gelatinase (MMP-2) and at Collagenase-3 (MMP-13) were 4150 nM and 68 nM, respectively.

For the compound `COCCCc1cc(-c2c[nH]c3cc(C(=O)c4ccc(Cl)c(S(N)(=O)=O)c4)ccc23)ccn1` [Example 140, 2-Chloro-5-{3-[2-(3-methoxy-propyl)-pyridin-4-yl]-1H-indole-6-carbonyl}-benzenesulfonamide], the IC50 on Gelatinase (MMP-2) was 360 nM; on Collagenase-3 (MMP-13) it was 7 nM.

For the compound `NS(=O)(=O)c1cc(C(=O)c2ccc3c(-c4ccnc(CCCN5CCOCC5)c4)c[nH]c3c2)ccc1Cl` [Example 141, 2-Chloro-5-{3-[2-(3-morpholin-4-yl-propyl)-pyridin-4-yl]-1H-indole-6-carbonyl}-benzenesulfonamide], the figures for the IC50 on Gelatinase (MMP-2) and at Collagenase-3 (MMP-13) were 1100 nM and 20 nM, respectively.

In the case of `CN(C)CCOc1cc(-c2c[nH]c3cc(C(=O)c4ccc(Cl)c(S(N)(=O)=O)c4)ccc23)ccn1` [Example 142, 2-Chloro-5-{3-[2-(2-dimethylamino-ethoxy)-pyridin-4-yl]-1H-indole-6-carbonyl}-benzenesulfonamide], the values for the IC50 at Gelatinase (MMP-2) and at Collagenase-3 (MMP-13) were 200 nM and 17 nM, respectively.

With `NS(=O)(=O)c1cc(C(=O)c2ccc3c(-c4ccnc(OCCN5CCOCC5)c4)c[nH]c3c2)ccc1Cl` [Example 143, 2-Chloro-5-{3-[2-(2-morpholin-4-yl-ethoxy)-pyridin-4-yl]-1H-indole-6-carbonyl}-benzenesulfonamide], the IC50 on Gelatinase (MMP-2) turned out to be 2850 nM; on Collagenase-3 (MMP-13) it was 150 nM.

For `NS(=O)(=O)c1cc(C(=O)c2ccc3cc[nH]c3c2)ccc1F` [Example 144, 2-Fluoro-5-(1H-indole-6-carbonyl)-benzenesulfonamide], the 50% inhibitory concentration (IC50) came out at 390 nM at Gelatinase (MMP-2) and 300 nM on Collagenase-3 (MMP-13).
